Test results: ChEMBL document CHEMBL1131612, “6-Amino-2-(4-fluorophenyl)-4-methoxy-3- (4-pyridyl)-1H-pyrrolo[2, 3-b]pyridine (RWJ 68354): a potent and selective p38 kinase inhibitor” (J Med Chem, 1998)

How the values were obtained:
[1] = tested on: PBMC; experiment: cells; conditions: Homo sapiens
Description: Inhibition of LPS-stimulated TH+NF-alphs production by human peripheral blood mononuclear cells (PBMCs)

[2] = biological target: cAMP-dependent protein kinase (PKA) (Homo sapiens) (UniProt P22694+P17612+P22612); experiment: Inhibition of Protein kinase A at 5 uM; format: protein assay
[3] = biological target: Proto-oncogene tyrosine-protein kinase Src (Homo sapiens) (UniProt P12931); experiment: Inhibition of c-Src tyrosine kinase at 5 uM
Chain of Proto-oncogene tyrosine-protein kinase Src (Homo sapiens) (P12931 2-536 limits assumed): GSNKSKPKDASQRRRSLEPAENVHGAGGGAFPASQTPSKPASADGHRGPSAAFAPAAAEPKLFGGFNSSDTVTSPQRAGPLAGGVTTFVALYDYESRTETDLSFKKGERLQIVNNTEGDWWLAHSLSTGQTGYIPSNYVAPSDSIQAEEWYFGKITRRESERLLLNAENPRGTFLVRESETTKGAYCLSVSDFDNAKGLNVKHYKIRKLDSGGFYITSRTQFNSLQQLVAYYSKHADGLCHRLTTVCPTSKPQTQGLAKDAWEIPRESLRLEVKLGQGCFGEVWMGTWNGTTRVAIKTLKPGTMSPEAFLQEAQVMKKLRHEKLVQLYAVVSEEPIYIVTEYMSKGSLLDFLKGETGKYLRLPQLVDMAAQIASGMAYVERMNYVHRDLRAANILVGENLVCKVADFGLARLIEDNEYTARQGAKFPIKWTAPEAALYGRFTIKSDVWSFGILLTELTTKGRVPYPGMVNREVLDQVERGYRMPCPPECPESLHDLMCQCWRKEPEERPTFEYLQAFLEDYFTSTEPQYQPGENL

[4] = biological target: Mitogen-activated protein kinase 1 (Homo sapiens) (UniProt P28482); experiment: Inhibition of Mitogen-activated protein kinase 1 (ERK-2 enzyme) at 10 uM
Chain of Mitogen-activated protein kinase 1 (Homo sapiens) (P28482 whole entry): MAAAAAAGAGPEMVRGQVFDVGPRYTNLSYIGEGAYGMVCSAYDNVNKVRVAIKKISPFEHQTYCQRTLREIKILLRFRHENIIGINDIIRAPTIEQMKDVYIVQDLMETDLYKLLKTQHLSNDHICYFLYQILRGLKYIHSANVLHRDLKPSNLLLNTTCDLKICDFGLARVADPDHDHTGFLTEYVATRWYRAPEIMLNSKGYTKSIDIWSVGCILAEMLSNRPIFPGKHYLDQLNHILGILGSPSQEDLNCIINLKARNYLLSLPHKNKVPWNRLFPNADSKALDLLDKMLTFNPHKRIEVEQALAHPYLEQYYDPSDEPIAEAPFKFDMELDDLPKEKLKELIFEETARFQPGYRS

[5] = biological target: T1, Prostaglandin G/H synthase 1 (Homo sapiens, UniProt P23219); experiment: Inhibition of Prostaglandin G/H synthase 1 at 5 uM (Inactive)
T1 sequence (P23219 whole entry): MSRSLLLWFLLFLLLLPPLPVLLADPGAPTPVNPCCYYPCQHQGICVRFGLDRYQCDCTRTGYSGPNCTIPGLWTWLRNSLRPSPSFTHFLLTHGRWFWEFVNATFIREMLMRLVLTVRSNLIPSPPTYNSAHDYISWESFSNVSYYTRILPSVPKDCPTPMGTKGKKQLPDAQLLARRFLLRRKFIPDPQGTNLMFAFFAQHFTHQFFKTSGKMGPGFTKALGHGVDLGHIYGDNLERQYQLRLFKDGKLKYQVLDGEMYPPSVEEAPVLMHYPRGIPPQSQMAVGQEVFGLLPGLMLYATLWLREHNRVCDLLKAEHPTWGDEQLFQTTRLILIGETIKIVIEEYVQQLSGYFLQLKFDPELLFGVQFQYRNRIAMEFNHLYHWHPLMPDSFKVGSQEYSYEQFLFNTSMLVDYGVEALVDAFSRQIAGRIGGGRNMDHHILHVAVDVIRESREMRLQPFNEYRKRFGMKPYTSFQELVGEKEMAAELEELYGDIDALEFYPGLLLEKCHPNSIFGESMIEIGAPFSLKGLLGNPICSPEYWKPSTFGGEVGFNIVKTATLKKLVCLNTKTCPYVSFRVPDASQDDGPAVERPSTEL

[6] = animal or person; conditions: Mus musculus, read-out: Inhibition
[7] = animal or person; conditions: Mus musculus, read-out: Inhibition; remark: listed apart in the source
[8] = biological target: T1, Prostaglandin G/H synthase 1; experiment: Inhibition of Prostaglandin G/H synthase 1 at 5 uM
[9] = Percent inhibition of LPS-stimulated TNF-alpha release in fasted BALB/cJ mice at 25 mg/kg; format: functional; conditions: Mus musculus
[10] = Percent inhibition of LPS-stimulated TNF-alpha release in fasted BALB/cJ mice at 10 mg/kg; format: functional; conditions: Mus musculus
[11] = tested on: PBMC; experiment: cells; format: functional, cell-based; conditions: Homo sapiens

| Structure (SMILES) | IC50 [1] [nM] | inhibition [2] [%] | inhibition [3] [%] | inhibition [4] [%] | IC50 [5] | inhibition in vivo at 10 mg/kg [6] [%] | inhibition in vivo at 25 mg/kg [7] [%] | IC50 [8] [nM] | inhibition in vivo at 25 mg/kg [9] [%] | inhibition in vivo at 10 mg/kg [10] [%] | IC50 [11] [nM] |
| --- | --- | --- | --- | --- | --- | --- | --- | --- | --- | --- | --- |
| Nc1cc(OCCCc2ccccc2)c2c(-c3ccncc3)c(-c3ccc(F)cc3)[nH]c2n1 | 9 | 0 | 3 |  |  |  |  |  |  |  |  |
| COc1cccc(COc2cc(N)[nH]c3nc(-c4ccc(F)cc4)c(-c4ccncc4)c2-3)c1 | 1.5 | 0 | 58 |  |  |  |  |  |  |  |  |
| COc1cc(N)[nH]c2nc(-c3ccc(F)cc3)c(-c3ccncc3)c1-2 |  | 0 | 43 | 23 | Not Active | 85 | 99 |  |  |  |  |
| C[S+]([O-])c1ccc(-c2nc(-c3ccncc3)c(-c3ccc(F)cc3)[nH]2)cc1 (stereo not drawn) [SB-203580] |  |  |  |  |  |  |  | > 5000 |  |  |  |
| CCCCOc1cc(N)[nH]c2nc(-c3ccc(F)cc3)c(-c3ccncc3)c1-2 | 4 | 0 | 18 |  | Not Active |  |  |  | 71 | 27 |  |
| Nc1ccc2c(-c3ccncc3)c(-c3ccc(F)cc3)[nH]c2n1 | 37 | 16 | 63 | 0 | Not Active |  |  |  | 98 | 73 | 450 |
| Nc1cc(OCc2ccccc2)c2c(-c3ccncc3)c(-c3ccc(F)cc3)[nH]c2n1 | 0.91 | 0 | 19 |  | Not Active |  |  |  | 86 | 11 |  |
| C[S+]([O-])c1ccc(-c2nc(-c3ccc(F)cc3)c(-c3ccncc3)[nH]2)cc1 (stereo not drawn) [SB-203580] |  | 0 | 54 | 22 |  |  |  |  | 83 | 33 |  |
